In patent US7112586B2, “Substituted diamine derivatives useful as motilin antagonists” (Ortho-McNeil Pharmaceutical, Inc., priority 2000, dated 2006):

Each compound was assayed against T1, Motilin Receptor (Oryctolagus cuniculus, UniProt G1T803) (assay: Motilin receptor binding, rabbit colon membranes, 125I porcine motilin). Conditions: not given.
T1 construct: The muscle tissue was homogenized in 10 volumes of 50 mM Tris-Cl; from tissue; host or cells: rabbit colon smooth muscle, crude membrane homogenate
T1 sequence (G1T803 1-400): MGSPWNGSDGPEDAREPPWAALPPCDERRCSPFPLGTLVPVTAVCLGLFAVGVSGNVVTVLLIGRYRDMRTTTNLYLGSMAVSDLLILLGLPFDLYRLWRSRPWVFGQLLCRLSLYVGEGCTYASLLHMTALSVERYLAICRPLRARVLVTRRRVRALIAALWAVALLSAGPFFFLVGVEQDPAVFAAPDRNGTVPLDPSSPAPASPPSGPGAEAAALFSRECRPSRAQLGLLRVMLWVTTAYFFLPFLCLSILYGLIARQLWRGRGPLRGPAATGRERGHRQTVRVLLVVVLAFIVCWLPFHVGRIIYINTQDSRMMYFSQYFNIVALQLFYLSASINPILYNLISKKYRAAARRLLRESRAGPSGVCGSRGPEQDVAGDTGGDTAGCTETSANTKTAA
Design: Rabbit Colon % Inh / inhibition / % Inh (Rabbit colon): dose or concentration left out as unconfirmed
Procedure: Rabbit colon was removed, dissected free from the mucosa and serosa, and diced into small pieces. The muscle tissue was homogenized in 10 volumes of 50 mM Tris-Cl, 10 mM MgCl2, 0.1 mg/ml bacitracin, and 0.25 mM Peflabloc, at pH 7.5 in a Polytron (29000 rpm, 4×15 seconds). The homogenate was centrifuged at 1000×g for 15 minutes and the supernatant discarded. The pellet was washed twice before being suspended in homogenizing buffer. The crude homogenate was resuspended through a 23 gauge needle before storing at −80° C. […] After 60 minutes at 30° C., the samples were cooled in ice, centrifuged in the cold at 13000×g for 1 minute. The pellet was washed twice with 1 ml of cold saline, the supernatant was aspirated, and the pellet at the bottom of the tube counted in a gamma counter. Non-specific binding was determined by the inclusion of 1 mM of unlabeled motilin. IC50 values were determined from Kaleidograph curves.

IC50 [nM] | Structure (SMILES)
690 | O=C(CCCN(C(=O)c1ccc(F)cc1)c1cccc(OCCN2CCOCC2)c1)N(CCc1ccccc1)Cc1ccccc1 [compound 4]

Same assay, conditions: rabbit colon membranes

Structure (SMILES) | Rabbit Colon % Inh [%]
CN1CCCC1CCOc1cccc(N(CC2CCCC(N(Cc3cccc(Cl)c3)C(=O)C(Cl)(Cl)Cl)C2)C(=O)c2ccc(F)cc2)c1 (racemic) [compound 236] | 53
O=C(CCCCN(C(=O)Nc1ccccc1)c1cccc(OCCN2CCOCC2)c1)N(CCc1ccccc1)Cc1ccccc1 [compound 5] | 40
Cc1ccc(C(=O)N(CCCCC(=O)N(CCc2ccccc2)Cc2ccccc2)c2cccc(OCCN3CCOCC3)c2)cc1 [compound 6] | 24
CCN(Cc1ccccc1)C(=O)CCCN(c1cccc(OCCN2CCOCC2)c1)S(=O)(=O)c1ccc(C)cc1 [compound 9] | 27
CCN(Cc1ccccc1)C(=O)CCCCN(c1cccc(OCCN2CCOCC2)c1)S(=O)(=O)c1ccc(C)cc1 [compound 12] | 4
CCN(Cc1ccccc1)C(=O)CCCCN(C(=O)c1ccc(C)cc1)c1cccc(OCCN2CCOCC2)c1 [compound 13] | 21
CN(Cc1ccccc1)C(=O)CCCN(C(=O)Nc1ccccc1)c1cccc(OCCN2CCOCC2)c1 [compound 15] | 21
Cc1ccc(S(=O)(=O)N(CCCC(=O)N(C)Cc2ccccc2)c2cccc(OCCN3CCOCC3)c2)cc1 [compound 16] | 21
CN(Cc1ccccc1)C(=O)CCCN(C(=O)c1ccc(F)cc1)c1cccc(OCCN2CCOCC2)c1 [compound 18] | 0
CN(Cc1ccccc1)C(=O)CCCCN(C(=O)Nc1ccccc1)c1cccc(OCCN2CCOCC2)c1 [compound 19] | 5
CN(Cc1ccccc1)C(=O)CCCCN(C(=O)c1ccc(F)cc1)c1cccc(OCCN2CCOCC2)c1 [compound 22] | 23
O=C(CCCN(C(=O)Nc1ccccc1)c1cccc(OCCN2CCOCC2)c1)N(Cc1ccccc1)Cc1ccccc1 [compound 23] | 48
O=C(CCCCN(C(=O)Nc1ccccc1)c1cccc(OCCN2CCOCC2)c1)N(Cc1ccccc1)Cc1ccccc1 [compound 26] | 22
Cc1ccc(S(=O)(=O)N(CCCCC(=O)N(Cc2ccccc2)Cc2ccccc2)c2cccc(OCCN3CCOCC3)c2)cc1 [compound 27] | 22
Cc1ccc(C(=O)N(CCCCC(=O)N(Cc2ccccc2)Cc2ccccc2)c2cccc(OCCN3CCOCC3)c2)cc1 [compound 28] | 13
CCN(Cc1ccc(C)cc1)C(=O)CCCN(C(=O)Nc1ccccc1)c1cccc(OCCN2CCOCC2)c1 [compound 30] | 17
CCN(Cc1ccc(C)cc1)C(=O)CCCN(c1cccc(OCCN2CCOCC2)c1)S(=O)(=O)c1ccc(C)cc1 [compound 31] | 39
CCN(Cc1ccc(C)cc1)C(=O)CCCN(C(=O)c1ccc(C)cc1)c1cccc(OCCN2CCOCC2)c1 [compound 32] | 12
CCN(Cc1ccc(C)cc1)C(=O)CCCN(C(=O)c1ccc(F)cc1)c1cccc(OCCN2CCOCC2)c1 [compound 33] | 16
CCN(Cc1ccc(C)cc1)C(=O)CCCCN(c1cccc(OCCN2CCOCC2)c1)S(=O)(=O)c1ccc(C)cc1 [compound 35] | 17
COc1cccc(C(=O)N(Cc2ccccc2)C2CCCC(CN(C(=O)Nc3ccccc3)c3cccc(OCCN4CCOCC4)c3)C2)c1 (centres unmarked) [compound 41] | 58
CC(C)(C)C(=O)N(Cc1ccccc1)C1CCCC(CN(C(=O)Nc2ccccc2)c2cccc(OCCN3CCOCC3)c2)C1 (centres unmarked) [compound 42] | 50
O=C(Nc1ccccc1)N(CC1CCCC(N(Cc2ccccc2)C(=O)c2ccc3ccccc3c2)C1)c1cccc(OCCN2CCOCC2)c1 (centres unmarked) [compound 44] | 4
O=C(Nc1ccccc1)N(CC1CCCC(N(Cc2cccc(Cl)c2)C(=O)C(Cl)(Cl)Cl)C1)c1cccc(OCCN2CCOCC2)c1 (centres unmarked) [compound 47] | 23
O=C(Nc1ccccc1)N(CC1CCCC(N(Cc2cccc(Cl)c2)C(=O)c2ccc(-c3ccccc3)cc2)C1)c1cccc(OCCN2CCOCC2)c1 (centres unmarked) [compound 50] | 32
CC(C)(C)C(=O)N(Cc1cccc(Cl)c1)C1CCCC(CN(C(=O)Nc2ccccc2)c2cccc(OCCN3CCOCC3)c2)C1 (centres unmarked) [compound 52] | 45
O=C(Nc1ccccc1)N(CC1CCCC(N(Cc2cccc(Cl)c2)C(=O)c2ccc3ccccc3c2)C1)c1cccc(OCCN2CCOCC2)c1 (centres unmarked) [compound 54] | 42

Next, values leading:

Rabbit Colon % Inh [%] | Structure (SMILES)
62 | CN(CCOc1cccc(N(CC2CCCC(N(Cc3cccc(Cl)c3)C(=O)C(C)(C)C)C2)C(=O)c2ccc(F)cc2)c1)Cc1ccccc1 (racemic) [compound 232]
61 | CN1CCCC1CCOc1cccc(N(CC2CCCC(N(Cc3cccc(Cl)c3)C(=O)C(C)(C)C)C2)C(=O)c2ccc(F)cc2)c1 (racemic) [compound 235]
9 | Cc1ccc(S(=O)(=O)N(CCCC(=O)N(CCc2ccccc2)Cc2ccccc2)c2cccc(OCCN3CCOCC3)c2)cc1 [compound 2]
35 | Cc1ccc(C(=O)N(CCCC(=O)N(CCc2ccccc2)Cc2ccccc2)c2cccc(OCCN3CCOCC3)c2)cc1 [compound 3]
42 | O=C(CCCCN(C(=O)c1ccc(F)cc1)c1cccc(OCCN2CCOCC2)c1)N(CCc1ccccc1)Cc1ccccc1 [compound 7]
18 | CCN(Cc1ccccc1)C(=O)CCCN(C(=O)Nc1ccccc1)c1cccc(OCCN2CCOCC2)c1 [compound 8]
29 | CCN(Cc1ccccc1)C(=O)CCCN(C(=O)c1ccc(C)cc1)c1cccc(OCCN2CCOCC2)c1 [compound 10]
0 | CCN(Cc1ccccc1)C(=O)CCCN(C(=O)c1ccc(F)cc1)c1cccc(OCCN2CCOCC2)c1 [compound 11]
25 | CCN(Cc1ccccc1)C(=O)CCCCN(C(=O)c1ccc(F)cc1)c1cccc(OCCN2CCOCC2)c1 [compound 14]
12 | Cc1ccc(C(=O)N(CCCC(=O)N(C)Cc2ccccc2)c2cccc(OCCN3CCOCC3)c2)cc1 [compound 17]
8 | Cc1ccc(S(=O)(=O)N(CCCCC(=O)N(C)Cc2ccccc2)c2cccc(OCCN3CCOCC3)c2)cc1 [compound 20]
34 | Cc1ccc(C(=O)N(CCCCC(=O)N(C)Cc2ccccc2)c2cccc(OCCN3CCOCC3)c2)cc1 [compound 21]
6 | Cc1ccc(S(=O)(=O)N(CCCC(=O)N(Cc2ccccc2)Cc2ccccc2)c2cccc(OCCN3CCOCC3)c2)cc1 [compound 24]
23 | Cc1ccc(C(=O)N(CCCC(=O)N(Cc2ccccc2)Cc2ccccc2)c2cccc(OCCN3CCOCC3)c2)cc1 [compound 25]
18 | O=C(CCCCN(C(=O)c1ccc(F)cc1)c1cccc(OCCN2CCOCC2)c1)N(Cc1ccccc1)Cc1ccccc1 [compound 29]
7 | CCN(Cc1ccc(C)cc1)C(=O)CCCCN(C(=O)Nc1ccccc1)c1cccc(OCCN2CCOCC2)c1 [compound 34]
32 | CCN(Cc1ccc(C)cc1)C(=O)CCCCN(C(=O)c1ccc(C)cc1)c1cccc(OCCN2CCOCC2)c1 [compound 36]
11 | CCN(Cc1ccc(C)cc1)C(=O)CCCCN(C(=O)c1ccc(F)cc1)c1cccc(OCCN2CCOCC2)c1 [compound 37]
32 | O=C(Nc1ccccc1)N(CC1CCCC(N(Cc2ccccc2)C(=O)C(c2ccccc2)c2ccccc2)C1)c1cccc(OCCN2CCOCC2)c1 (centres unmarked) [compound 46]
37 | O=C(Nc1ccccc1)N(CC1CCCC(N(Cc2cccc(Cl)c2)C(=O)c2cc(C(F)(F)F)cc(C(F)(F)F)c2)C1)c1cccc(OCCN2CCOCC2)c1 (centres unmarked) [compound 49]
73 | COc1cccc(C(=O)N(Cc2cccc(Cl)c2)C2CCCC(CN(C(=O)Nc3ccccc3)c3cccc(OCCN4CCOCC4)c3)C2)c1 (centres unmarked) [compound 51]
52 | O=C(Nc1ccccc1)N(CC1CCCC(N(Cc2cccc(Cl)c2)C(=O)CCc2ccccc2)C1)c1cccc(OCCN2CCOCC2)c1 (centres unmarked) [compound 53]

Same assay, conditions: rabbit colon membranes; read-out: Rabbit Colon % Inh

Structure (SMILES) | inhibition [%]
O=C(CCCN(C(=O)Nc1ccccc1)c1cccc(OCCN2CCOCC2)c1)N(CCc1ccccc1)Cc1ccccc1 [compound 1] | 35
O=C(Nc1ccccc1)N(CC1CCCC(N(Cc2ccccc2)C(=O)c2ccco2)C1)c1cccc(OCCN2CCOCC2)c1 (centres unmarked) [compound 48] | 67

Now from value to compound:

inhibition [%] | Structure (SMILES)
4 | O=C(Nc1ccccc1)N(c1cccc(OCCN2CCOCC2)c1)C1CCC(CN(Cc2cccc(Cl)c2)C(=O)C(Cl)(Cl)Cl)C1 (centres unmarked) [compound 39]
11 | O=C(Nc1ccccc1)N(CC1CCCC(N(Cc2ccccc2)C(=O)Nc2ccccc2)C1)c1cccc(OCCN2CCOCC2)c1 (centres unmarked) [compound 40]
74 | O=C(Nc1ccccc1)N(CC1CCCC(N(Cc2ccccc2)C(=O)CCc2ccccc2)C1)c1cccc(OCCN2CCOCC2)c1 (centres unmarked) [compound 43]
67 | O=C(Nc1ccccc1)N(CC1CCCC(N(Cc2ccccc2)C(=O)c2cccc([N+](=O)[O-])c2)C1)c1cccc(OCCN2CCOCC2)c1 (centres unmarked) [compound 45]

Same assay, conditions: rabbit colon membranes; read-out: Rabbit Colon IC50

IC50 [nM] | Structure (SMILES)
73 | O=C(c1ccc(F)cc1)N(C[C@H]1CCC[C@@H](N(Cc2cccc(Cl)c2)C(=O)C(Cl)(Cl)Cl)C1)c1cccc(OCCN2CCCCC2)c1 [ID 239]
730 | O=C(Nc1ccccc1)N(CC1CCCC(N(Cc2ccccc2)C(=O)CCc2ccccc2)C1)c1cccc(OCCN2CCOCC2)c1 (centres unmarked) [compound 43]
1160 | O=C(Nc1ccccc1)N(CC1CCCC(N(Cc2ccccc2)C(=O)c2cccc([N+](=O)[O-])c2)C1)c1cccc(OCCN2CCOCC2)c1 (centres unmarked) [compound 45]
656 | O=C(Nc1ccccc1)N(CC1CCCC(N(Cc2ccccc2)C(=O)c2ccco2)C1)c1cccc(OCCN2CCOCC2)c1 (centres unmarked) [compound 48]
650 | COc1cccc(C(=O)N(Cc2cccc(Cl)c2)C2CCCC(CN(C(=O)Nc3ccccc3)c3cccc(OCCN4CCOCC4)c3)C2)c1 (centres unmarked) [compound 51]

Same assay, conditions: read-out: Rabbit Colon % Inh

inhibition [%] | Structure (SMILES)
75 | O=C(CCCN(C(=O)c1ccc(F)cc1)c1cccc(OCCN2CCOCC2)c1)N(CCc1ccccc1)Cc1ccccc1 [compound 4]
